Laboratory results: article PMC11071649, “Synthesis and Selective Anticancer Activity Evaluation of 2-phenylacrylonitrile Derivatives as Tubulin Inhibitors” (Current Medicinal Chemistry, 2024)

Columns and labels:
Assay type in all cases: cell-based, human
A549 lung cancer cell = assay: MTT anti-proliferative assay, A549; settings: for IC50: MTT, 48 h
Procedure: (§1) The anti-proliferation activities of the synthesized analogs were assessed by an in vitro MTT assay conducted on thirteen human cell lines. Their cytotoxic activities were evaluated by measuring the inhibition of net cell growth. […]
(§2) 1.6. Cell lines and cell culture
(§3) MTT was purchased from Sigma-Aldrich Co. (St. Louis, MO, USA). The PI and Annexin V-FITC apoptosis detection kit were purchased from Invitrogen (Eugene, OR, USA). All human cell lines were used in this study. […]
(§4) cell, MCF-7 breast cancer cell, MCF-10A normal breast cell, Raji B lymphoblastoid cell and diffuse large B-cell lymphoma SU-DHL-10 cell were initially purchased from American Type Culture Collection (ATCC, Manassas, Virginia). media, DMEM, and FBS were provided from Gibco Company.
(§5) 1.7. Cell growth inhibition assay (MTT assay)
(§6) The experiment was carried out according to the method of reference. Briefly, cells were plated in 96-well plates at a den- […]
(§7) the anti-proliferative activities were determined by MTT assay. […]
(§8) (Becton-Dickinson, Franklin Lakes, NJ). […]

AGS gastric cancer cell = assay: MTT anti-proliferative assay, AGS; settings: for IC50: MTT, 48 h
Procedure: as §1, §2, §3, §4, §5, §6, §7, §8

[1] = tested on: BEL-7402 liver cancer cell; assay: MTT anti-proliferative assay, BEL-7402; settings: for IC50: MTT, 48 h
Procedure: as §1, §2, §3, §4, §5, §6, §7, §8

[2] = tested on: HCT116 colectal cancer cell; assay: MTT anti-proliferative assay, HCT116; settings: for IC50: MTT, 48 h, read-out: IC50 HCT-116
Procedure: as §1, §2, §3, §4, §5, §6, §7, §8

[3] = tested on: HeLa cervical cancer cell; assay: MTT anti-proliferative assay, HeLa; settings: MTT, 48 h
Procedure: as §1, §2, §3, §4, §5, §6, §7, §8

HepG2 hepatoma cell = assay: MTT anti-proliferative assay, HepG2; settings: for IC50: MTT, 48 h, read-out: IC50 HepG-2
Procedure: as §1, §2, §3, §4, §5, §6, §7, §8

L-02 normal liver cell = assay: MTT assay, L-02 normal cells; settings: 48 h
Procedure: as §1, §2, §3, §4, §5, §6, §7, §8

[4] = tested on: MGC-803 late stage differentiation gastric cancer cell; assay: MTT anti-proliferative assay, MGC-803; settings: for IC50: MTT, 48 h
Procedure: as §1, §2, §3, §4, §5, §6, §7, §8

MCF-7 breast cancer cell = assay: MTT anti-proliferative assay, MCF-7; settings: for IC50: MTT, 48 h
Procedure: as §1, §2, §3, §4, §5, §6, §7, §8

[5] = tested on: MCF-10A normal breast cell; assay: MTT assay, MCF-10A normal cells; settings: 48 h
Procedure: as §1, §2, §3, §4, §5, §6, §7, §8

[6] = tested on: Raji B lymphoblastoid cell; assay: MTT anti-proliferative assay, Raji; settings: for IC50: MTT, 48 h, read-out: IC50 Raji
Procedure: as §1, §2, §3, §4, §5, §6, §7, §8

[7] = tested on: SGC-7901 early differentiation gastric cancer cell; assay: MTT anti-proliferative assay, SGC-7901; settings: for IC50: MTT, 48 h
Procedure: as §1, §2, §3, §4, §5, §6, §7, §8

[8] = tested on: diffuse large B-cell lymphoma SU-DHL-10 cell; assay: MTT anti-proliferative assay, SU-DHL-10; settings: for IC50: MTT, 48 h, read-out: IC50 SU-DHL-10
Procedure: as §1, §2, §3, §4, §5, §6, §7, §8

Structure (SMILES)	IC50 (A549 lung cancer cell) [µM]	SI (selectivity index), IC50 (L-02)/IC50 (AGS) (AGS gastric cancer cell)	IC50 (AGS gastric cancer cell) [µM]	SI (selectivity index), IC50 (L-02)/IC50 (BEL-7402) [1]	IC50 [1] [µM]	IC50 [2] [µM]	IC50 [3] [µM]	SI (selectivity index), IC50 (L-02)/IC50 (HepG-2) (HepG2 hepatoma cell)	IC50 (HepG2 hepatoma cell) [µM]	IC50 (L-02 normal liver cell) [µM]	SI (selectivity index), IC50 (L-02)/IC50 (MGC-803) [4]	IC50 [4] [µM]	IC50 (MCF-7 breast cancer cell) [µM]	IC50 [5] [µM]	IC50 [6] [µM]	SI (selectivity index), IC50 (L-02)/IC50 (SGC-7901) [7]	IC50 [7] [µM]	IC50 [8] [µM]	SI (selectivity index), IC50 (L-02)/IC50 (HCT-116) [2]	SI (selectivity index), IC50 (L-02)/IC50 (Raji) [6]	other results
CCc1ccc(/C=C(\C#N)c2cccc(OC(F)(F)F)c2)cc1 [Compound 1b2f]	> 100	> 2.2	43.8 ± 21.8	> 2.2	44.8 ± 10.6	> 100	> 100	> 1.9	72.9 ± 9.9	> 100	> 2.0	49.3 ± 0.3	> 100	> 100	> 100	> 1.6	61.7 ± 0.4	> 100			
CC(C)c1ccc(/C=C(\C#N)c2cccc(OC(F)(F)F)c2)cc1 [Compound 1b2g]	> 100		> 100		> 100	> 100	> 100		> 100	> 100		> 100	> 100	> 100	> 100		> 100	> 100			
CN(C)c1ccc(/C=C(\C#N)c2cccc(OC(F)(F)F)c2)cc1 [Compound 1b2h]	> 100		> 100	> 50.5	1 ± 0.8	0.3 ± 0.2	> 100	> 1.3	42.3 ± 18.2	52 ± 8.4	> 13.9	3.7 ± 1.3	> 100	> 100	20.1 ± 2.3	> 7.2	7.1 ± 2.4	> 100	> 153.1	> 2.5	
N#C/C(=C\c1ccc(N2CCOCC2)cc1)c1cccc(OC(F)(F)F)c1 [Compound 1b2i]	> 100	> 1.1	23.9 ± 2.7	> 2.1	13 ± 1.1	12.3 ± 1.6	> 100	> 1.2	23.5 ± 4.3	28.5 ± 0.8	> 2.6	10.8 ± 2.9	> 100	79.6 ± 5.7	23.7 ± 2.1		46 ± 4.9	53.6 ± 7.5	> 2.3	> 1.1	
COc1ccc(/C=C(\C#N)c2cccc(OC(F)(F)F)c2)cc1 [Compound 1b2j]	> 100		> 100		> 100	> 100	> 100		> 100	> 100		> 100	> 100	> 100	> 100	> 1.3	72.1 ± 4.5	> 100			
CCCOc1ccc(/C=C(\C#N)c2cccc(OC(F)(F)F)c2)cc1 [Compound 1b2k]	> 100		> 100		> 100	> 100	> 100		> 100	> 100		> 100	> 100	> 100	> 100		> 100	> 100			
N#C/C(=C\c1ccccn1)c1cccc(OC(F)(F)F)c1 [Compound 1b3a]	32.6 ± 1.1		15.4 ± 0.5	> 5.2	> 100	19.3 ± 0.1	38.8 ± 3.5		21.5 ± 7.6	35.9 ± 1.6		20.7 ± 1.5	25.5 ± 0.4	22.7 ± 3.5	56.6 ± 5.8		20.9 ± 5.1	59.7 ± 0.8			
N#C/C(=C\c1ccccc1)c1ccccc1OC(F)(F)F [Compound 1c2a]	> 100		> 100		> 100	> 100	> 100		> 100	> 100		> 100	> 100	> 100	> 100		> 100	> 100			
N#C/C(=C\c1ccc(Cl)cc1)c1ccccc1OC(F)(F)F [Compound 1c2b]	> 100	> 3.1	31.4 ± 8.3		> 100	> 100	> 100	> 1.4	70.5 ± 25.4	> 100	> 3.4	29 ± 8.3	> 100	> 100	> 100		> 100	> 100			
N#C/C(=C\c1ccc(Br)cc1)c1ccccc1OC(F)(F)F [Compound 1c2c]	> 100	> 2.5	16.7 ± 2.3		> 100	17.2 ± 5.2	> 100	> 1.5	27.9 ± 2.4	42.2 ± 11.5	> 2.1	19.6 ± 6.7	> 100	> 100	42.4 ± 1.7		> 100	> 100	> 2.4		
Cc1ccc(/C=C(\C#N)c2ccccc2OC(F)(F)F)cc1 [Compound 1c2d]	50.7 ± 7.4	> 15.6	6.3 ± 0.4	> 5.7	17.4 ± 4.2	> 100	> 100	> 3.7	26.7 ± 10.1	> 100	> 7.6	13.1 ± 3.6	> 100	> 100	60.5 ± 19.1	> 1.9	50.1 ± 5.9	> 100		> 1.6	SI (selectivity index), IC50 (L-02)/IC50 (A549) (A549 lung cancer cell): > 1.9
COc1ccc(/C=C(\C#N)c2ccccc2OC(F)(F)F)cc1 [Compound 1c2e]	> 100	> 4.7	7.6 ± 0.6	> 3.3	10.8 ± 2.3	8.4 ± 2.4	75.8 ± 12.4	> 1.4	24.9 ± 7	36.1 ± 4.8	> 14.2	2.5 ± 1.1	> 100	> 100	41.3 ± 5.5	> 4.5	7.8 ± 0.8	> 100	> 4.2		
Cc1ccc(/C(C#N)=C/c2ccc(N(C)C)cc2)cc1 [Compound 1d2a]	> 100	> 4.3	23 ± 1		> 100	> 100	> 100		> 100	> 100	> 5.3	18.8 ± 1.7	> 100	> 100	7.9 ± 0.5		> 100	19.9 ± 0.7		> 12.5	SI (selectivity index), IC50 (L-02)/IC50 (SU-DHL-10) [8]: > 5.0
CCN(CC)c1ccc(/C=C(\C#N)c2ccc(C)cc2)cc1 [Compound 1d2b]	> 100	> 4.1	24.1 ± 0.2	> 1.5	65.4 ± 2.5	3.1 ± 0.5	> 100		> 100	> 100	> 11.5	8.6 ± 0.04	52.3 ± 2.2	> 100	11.8 ± 0.4		> 100	42.6 ± 11.4	> 32.0	> 8.4	SI (selectivity index), IC50 (MCF-10A)/IC50 (MCF-7) (MCF-7 breast cancer cell): > 1.9; SI (selectivity index), IC50 (L-02)/IC50 (SU-DHL-10) [8]: > 2.3
